Source: paper PMC4291083, “Ex Vivo Characterization of a Novel Iodine-123-Labelled Aminomethylchroman as a Potential Agonist Ligand for SPECT Imaging of Dopamine D2/3 Receptors” (International Journal of Molecular Imaging, 2014)
Marks after values point to notes of the source that are not given here.

Assay: Biodistribution studies in rats
Assay type: in vivo, Wistar rats
Conditions: for uptake ratio Frontal cortex/cereb. / uptake ratio Hippocampus/cereb. / uptake ratio Hypothalamus/cereb. / uptake ratio Midbrain/cereb. / uptake ratio Olfactory b./cereb. / uptake ratio Pons/medulla/cereb. / uptake ratio Striatum/cereb. / uptake ratio Thalamus/cereb. / uptake ratio Pituitary/cereb.: rats; for 123I radioactivity, Blood / 123I radioactivity, Cerebellum / 123I radioactivity, Fat: male rats
Description: [^123I]-1 (SA ≥ 37 MBq/nmol) was received after radiolabelling in an isotonic acetate (9% EtOH) buffer (pH 4.8). The solution was passed through a membrane filter (0.2 μm) and was diluted to the proper concentrations. Male Wistar rats (approximately 250 g body weight, obtained from Harlan/Charles River, Zeist, Netherlands) received an intravenous injection in the tail vein of approximately 3.7 MBq/0.4 mL buffer of [^123I]-1 under O2/CO2 anaesthesia. Distribution to the tissue was measured 15 min, 30 min, and 1, 2, 3, 4, and 24 h after the injection to determine the time course of uptake in several organs, including the brain. Four rats were killed at each time point via bleeding by heart puncture (to minimize contribution of blood activity) under O2/CO2 anaesthesia followed by cervical dislocation. Brain regions (cerebellum, frontal and prefrontal cortex, olfactory bulbs, pituitary, medulla with pons, midbrain, striatum, hypothalamus, hippocampus, and thalamus) and various peripheral tissues (heart, lung, liver, spleen, kidney, muscle, fat, and thymus) were quickly excised and weighted. The activity of [^123I] was assayed in a gamma counter, and data was corrected for decay and the amount of radioactivity was presented as percentage of the injected dose, multiplied by the body weight in kilograms, per gram tissue or blood. Selective uptake in the striatum was determined by calculating the ratio of radioactivity in the striatum in relation to that in the cerebellum, since the density of dopamine D2/3 receptor is negligible in this brain area in rats.

uptake ratio Frontal cortex/cereb. (15 min after i.v. injection): 2.962 ± 1.817 | uptake ratio Hippocampus/cereb. (15 min after i.v. injection): 0.870 ± 0.303 | uptake ratio Hypothalamus/cereb. (15 min after i.v. injection): 1.512 ± 0.546 | uptake ratio Midbrain/cereb. (15 min after i.v. injection): 3.712 ± 4.715 | uptake ratio Olfactory b./cereb. (15 min after i.v. injection): 0.431 ± 0.330 | uptake ratio Pons/medulla/cereb. (15 min after i.v. injection): 1.470 ± 0.520 | uptake ratio Striatum/cereb. (15 min after i.v. injection): 1.455 ± 1.265 | uptake ratio Thalamus/cereb. (15 min after i.v. injection): 1.670 ± 0.908 | uptake ratio Pituitary/cereb. (15 min after i.v. injection, only 1 sample): 1.157^* | uptake ratio Frontal cortex/cereb. (30 min after i.v. injection): 1.543 ± 0.142 | uptake ratio Hippocampus/cereb. (30 min after i.v. injection): 1.479 ± 0.466 | uptake ratio Hypothalamus/cereb. (30 min after i.v. injection): 1.139 ± 0.014 | uptake ratio Midbrain/cereb. (30 min after i.v. injection): 1.144 ± 0.051 | uptake ratio Olfactory b./cereb. (30 min after i.v. injection): 0.893 ± 0.067 | uptake ratio Pituitary/cereb. (30 min after i.v. injection): 2.262 ± 0.233 | uptake ratio Pons/medulla/cereb. (30 min after i.v. injection): 1.036 ± 0.212 | uptake ratio Striatum/cereb. (30 min after i.v. injection): 1.294 ± 0.061 | uptake ratio Thalamus/cereb. (30 min after i.v. injection): 1.325 ± 0.074 | mean ratio of striatum/cerebellum binding (30 min to 4 h p.i., i.v., Wistar rats): about 1.3 | uptake ratio Frontal cortex/cereb. (1 h after i.v. injection): 1.154 ± 0.095 | uptake ratio Hippocampus/cereb. (1 h after i.v. injection): 1.390 ± 0.210 | uptake ratio Hypothalamus/cereb. (1 h after i.v. injection): 1.189 ± 0.132 | uptake ratio Midbrain/cereb. (1 h after i.v. injection): 1.207 ± 0.109 | uptake ratio Olfactory b./cereb. (1 h after i.v. injection): 1.007 ± 0.050 | uptake ratio Pituitary/cereb. (1 h after i.v. injection): 2.502 ± 0.883 | uptake ratio Pons/medulla/cereb. (1 h after i.v. injection): 1.218 ± 0.109 | uptake ratio Striatum/cereb. (1 h after i.v. injection): 1.246 ± 0.103 | uptake ratio Thalamus/cereb. (1 h after i.v. injection): 1.243 ± 0.042 | uptake ratio Frontal cortex/cereb. (2 h after i.v. injection): 1.145 ± 0.079 | uptake ratio Hippocampus/cereb. (2 h after i.v. injection): 1.301 ± 0.047 | uptake ratio Hypothalamus/cereb. (2 h after i.v. injection): 1.116 ± 0.085 | uptake ratio Midbrain/cereb. (2 h after i.v. injection): 1.168 ± 0.080 | uptake ratio Olfactory b./cereb. (2 h after i.v. injection): 1.125 ± 0.089 | uptake ratio Pituitary/cereb. (2 h after i.v. injection): 4.399 ± 2.113 | uptake ratio Pons/medulla/cereb. (2 h after i.v. injection): 1.205 ± 0.016 | uptake ratio Striatum/cereb. (2 h after i.v. injection): 1.155 ± 0.069 | uptake ratio Thalamus/cereb. (2 h after i.v. injection): 1.200 ± 0.067 | uptake ratio Frontal cortex/cereb. (3 h after i.v. injection): 1.315 ± 0.360 | uptake ratio Hippocampus/cereb. (3 h after i.v. injection): 1.294 ± 0.112 | uptake ratio Hypothalamus/cereb. (3 h after i.v. injection): 1.326 ± 0.053 | uptake ratio Midbrain/cereb. (3 h after i.v. injection): 1.224 ± 0.090 | uptake ratio Olfactory b./cereb. (3 h after i.v. injection): 1.314 ± 0.150 | uptake ratio Pituitary/cereb. (3 h after i.v. injection): 3.352 ± 1.490 | uptake ratio Pons/medulla/cereb. (3 h after i.v. injection): 1.310 ± 0.114 | uptake ratio Striatum/cereb. (3 h after i.v. injection): 1.331 ± 0.126 | uptake ratio Thalamus/cereb. (3 h after i.v. injection): 1.582 ± 0.101 | uptake ratio Frontal cortex/cereb. (4 h after i.v. injection): 0.865 ± 0.580 | uptake ratio Hippocampus/cereb. (4 h after i.v. injection): 1.035 ± 0.114 | uptake ratio Hypothalamus/cereb. (4 h after i.v. injection): 1.332 ± 0.103 | uptake ratio Midbrain/cereb. (4 h after i.v. injection): 1.097 ± 0.086 | uptake ratio Olfactory b./cereb. (4 h after i.v. injection): 1.333 ± 0.124 | uptake ratio Pituitary/cereb. (4 h after i.v. injection): 3.570 ± 2.544 | uptake ratio Pons/medulla/cereb. (4 h after i.v. injection): 1.214 ± 0.133 | uptake ratio Striatum/cereb. (4 h after i.v. injection): 1.156 ± 0.080 | uptake ratio Thalamus/cereb. (4 h after i.v. injection): 1.351 ± 0.175 | uptake ratio Frontal cortex/cereb. (24 h after i.v. injection): 1.818 ± 0.372 | uptake ratio Hippocampus/cereb. (24 h after i.v. injection): 1.031 ± 0.090 | uptake ratio Hypothalamus/cereb. (24 h after i.v. injection): 1.989 ± 0.574 | uptake ratio Midbrain/cereb. (24 h after i.v. injection): 1.426 ± 0.204 | uptake ratio Olfactory b./cereb. (24 h after i.v. injection): 1.444 ± 0.163 | uptake ratio Pituitary/cereb. (24 h after i.v. injection): 6.021 ± 0.577 | uptake ratio Pons/medulla/cereb. (24 h after i.v. injection): 1.278 ± 0.211 | uptake ratio Striatum/cereb. (24 h after i.v. injection): 2.023 ± 0.872 | uptake ratio Thalamus/cereb. (24 h after i.v. injection): 2.473 ± 0.599 | 123I radioactivity, Blood (15 min after i.v. injection): 0.291 ± 0.190 %ID × kg/g | 123I radioactivity, Blood (30 min after i.v. injection): 0.486 ± 0.291 %ID × kg/g | 123I radioactivity, Blood (1 h after i.v. injection): 0.557 ± 0.087 %ID × kg/g | 123I radioactivity, Blood (2 h after i.v. injection): 0.446 ± 0.105 %ID × kg/g | 123I radioactivity, Blood (3 h after i.v. injection): 0.428 ± 0.082 %ID × kg/g | 123I radioactivity, Blood (4 h after i.v. injection): 0.393 ± 0.136 %ID × kg/g | 123I radioactivity, Blood (24 h after i.v. injection): 0.081 ± 0.049 %ID × kg/g | 123I radioactivity, Cerebellum (15 min after i.v. injection): 0.858 ± 0.384 %ID × kg/g | 123I radioactivity, Cerebellum (30 min after i.v. injection): 1.496 ± 0.478 %ID × kg/g | 123I radioactivity, Cerebellum (1 h after i.v. injection): 0.627 ± 0.035 %ID × kg/g | 123I radioactivity, Cerebellum (2 h after i.v. injection): 0.196 ± 0.037 %ID × kg/g | 123I radioactivity, Cerebellum (3 h after i.v. injection): 0.178 ± 0.061 %ID × kg/g | 123I radioactivity, Cerebellum (4 h after i.v. injection): 0.087 ± 0.043 %ID × kg/g | 123I radioactivity, Cerebellum (24 h after i.v. injection): 0.014 ± 0.002 %ID × kg/g | 123I radioactivity, Fat (15 min after i.v. injection): 3.080 ± 2.656 %ID × kg/g | 123I radioactivity, Fat (30 min after i.v. injection): 0.674 ± 0.102 %ID × kg/g | 123I radioactivity, Fat (1 h after i.v. injection): 0.509 ± 0.024 %ID × kg/g | 123I radioactivity, Fat (2 h after i.v. injection): 0.365 ± 0.094 %ID × kg/g
Compound: Oc1ccc2c(c1)O[C@@H](CNCc1ccc([123I])cc1)CC2 [[^123I]-1]
